# Assay results as given in patent US12708640B2, “Synergistic nutritional compositions for treating vestibular associated neurodegenerative diseases” (CELAGENEX RESEARCH (INDIA) PVT. LTD., priority 2021, dated 2026).
# Key:
# Assay type in all cases: in vivo, Albino Wistar rat
# [1] = test system: sodium arsanilate induced vestibular dysfunction (Vertigo disorder) in wistar rats; experiment: Contact righting reflex; conditions: for Contact righting reflex (time), Average: group average of 6 animals
# Description: (§1) “Evaluation of test substance on sodium arsanilate induced vestibular dysfunction (Vertigo disorder) in wistar rats”.
# (§2) Vestibular dysfunction was induced in rats by intratympanic injection of sodium arsanilate an ototoxic compound. Sodium arsanilate is an arsenic derivative and intratympanic injection result was vestibular nerve degeneration in brain stem with concomitant loss of labyrinthine righting and reduced postural support with exaggerated head dorsiflexion.
# (§3) All the animals were acclimatized for at least 5 days under controlled environmental condition. Total 42 animals were divided into seven groups consisting of 6 animals per group. Normal control (G1) group receiving vehicle, disease control (G2) group receiving sodium arsanilate injection only, standard group (G3) receiving reference standard (vertin) and treatment groups G4, G5, G6 & G7 were treated with the test substances. All the groups (except normal control group) were induced with sodium arsanilate via intratymphanic injection. All the treatment groups were administered daily for 7 consecutive days.
# The rats were placed in a syringe core tube in a supine position, following which the recovery time for position correction to be recorded. Normal rats turned over their body position in a few seconds.
# [2] = Rat feed consumption in the sodium arsanilate vestibular dysfunction study; conditions: rats, group value
# Description: as §1
# (§4) • Test Species: Rat • Strain: Albino Wistar • Sex: Male/Female • Age: 6-8 Weeks • Body Weight: 180-200 g • Source: In house breed • Total No. of Animals: 42 Animals (7 groups of 6 animals each) • Feed: Normal chow diet (Purina lab diet 5L79 Rat and Mouse 18%) (PMI Nutrition International) Environmental Conditions:
# as §3
# The feed consumption was calculated and reported on a daily basis throughout the study period.
# [3] = Rat body weight in the sodium arsanilate vestibular dysfunction study; conditions: rats, group value; for Body Weight, End of the treatment: after 7 days daily treatment
# Description: as §1, §4, §3
# Individual body weights were recorded at receipt, on the day of randomization, on the first day of treatment before dosing and weekly once thereafter throughout the treatment period. The body weight changes for all the animals were calculated and reported along with the body weight data.
# [4] = test system: sodium arsanilate induced vestibular dysfunction (Vertigo disorder) in wistar rats; experiment: Air righting reflex (air reflecting index); conditions: for Air Righting Reflex (% of Rats that successfully righted themselves within 5 s), Average: group average of 6 animals
# Description: as §1, §2, §3
# A sponge was spread on a flat surface and the animals were placed in a supine position in the air 50 cm away above the sponge, following which the animal was dropped horizontally.
# Four-legged smooth landing on the ground was considered as positive (normal animal), whereas the body or other regions landing first was considered vestibular dysfunction animals. The positive landing rate (%) of each rat in each group was recorded.
# [5] = test system: sodium arsanilate induced vestibular dysfunction (Vertigo disorder) in wistar rats; experiment: Open field test; conditions: for Ambulation Score [the number of open-field sections entered by the rat], Average / Defecation [the number of fecal boli deposited in the open-field], Average / Grooming [the number of grooming bouts exhibited by the rat], Average / Rearing Responses [the number of times the animal raised both forefeet off the floor and extended its body], Average: group average of 6 animals; for % Improvement in Ambulation score wrt. G2 / % Improvement in Defecation wrt. G2 / % Improvement in Grooming wrt. G2 / % Improvement in Rearing Responses wrt. G2: open field test, wrt. disease control G2
# Description: as §1, §2, §3
# The open-field was circular, with a diameter of 90 cm, and enclosed by a wall 30 cm high. The floor and wall of the open-field was black and the floor was divided into 25 equal area sections by thin white lines. The floor was covered with a transparent plastic coating. The open-field apparatus was located inside a large wooden frame which surrounded on all sides by black curtains. The field was illuminated by two 60-W fluorescent lights located 100 cm above the floor.
# At the start of each session the rats were placed in one of the peripheral sections of the open-field and the animal's behavior was monitored by an observer for 10 consecutive minutes. […] At the end of each session the rat was returned to its home cage and the floor of the open-field was cleaned and sponged over with a weak vinegar solution to remove any residual odors.
# [6] = animal 1, recovery time for position correction
# [7] = animal 2, recovery time for position correction
# [8] = animal 3, recovery time for position correction
# [9] = animal 4, recovery time for position correction
# [10] = animal 5, recovery time for position correction
# [11] = animal 6, recovery time for position correction
# [12] = animal 1, end of 7-day treatment
# [13] = animal 2, end of 7-day treatment
# [14] = animal 3, end of 7-day treatment
# [15] = animal 4, end of 7-day treatment
# [16] = animal 5, end of 7-day treatment
# [17] = animal 6, end of 7-day treatment
smiles,measurement,setting,value
"CC(=O)NC(CC(C)C)C(=O)O (racemic) [Group 4, N-Acetyl-DL-leucine enantiomerically enriched (EE) with L-leucine]",Contact righting reflex (time),[1]; [6],27 s
same,Contact righting reflex (time),[1]; [7],26 s
same,Contact righting reflex (time),[1]; [8],25 s
same,Contact righting reflex (time),[1]; [9],28 s
same,Contact righting reflex (time),[1]; [10],27 s
same,Contact righting reflex (time),[1]; [11],28 s
same,"Contact righting reflex (time), Average",[1],26.83 s
same,"contact righting reflex, improvement (wrt. the Disease Control)",[1],up to 34%
same,"Feed Consumption, 0 day",[2],16.00 gm
same,"Feed Consumption, 7th day",[2],16.67 gm
same,"Body Weight, End of the treatment",[3],190.77 gm
same,"Body Weight, Initial",[3],189.15 gm
same,Air Righting Reflex (% successfully righted within 5 s),[4]; animal 1,40%
same,"Air Righting Reflex, Successful out of 5",[4]; [12],2
same,Air Righting Reflex (% successfully righted within 5 s),[4]; animal 2,60%
same,"Air Righting Reflex, Successful out of 5",[4]; [13],3
same,Air Righting Reflex (% successfully righted within 5 s),[4]; animal 3,40%
same,"Air Righting Reflex, Successful out of 5",[4]; [14],2
same,Air Righting Reflex (% successfully righted within 5 s),[4]; animal 4,40%
same,"Air Righting Reflex, Successful out of 5",[4]; [15],2
same,Air Righting Reflex (% successfully righted within 5 s),[4]; animal 5,60%
same,"Air Righting Reflex, Successful out of 5",[4]; [16],3
same,Air Righting Reflex (% successfully righted within 5 s),[4]; animal 6,40%
same,"Air Righting Reflex, Successful out of 5",[4]; [17],2
same,"Air Righting Reflex (% of Rats that successfully righted themselves within 5 s), Average",[4],46.67%
same,Ambulation Score [the number of open-field sections entered by the rat],[5]; animal 1,210
same,Defecation [the number of fecal boli deposited in the open-field],[5]; animal 1,2
same,Grooming [the number of grooming bouts exhibited by the rat],[5]; animal 1,3
same,Rearing Responses [the number of times the animal raised both forefeet off the floor and extended its body],[5]; animal 1,4
same,Ambulation Score [the number of open-field sections entered by the rat],[5]; animal 2,200
same,Defecation [the number of fecal boli deposited in the open-field],[5]; animal 2,3
same,Grooming [the number of grooming bouts exhibited by the rat],[5]; animal 2,4
same,Rearing Responses [the number of times the animal raised both forefeet off the floor and extended its body],[5]; animal 2,3
same,Ambulation Score [the number of open-field sections entered by the rat],[5]; animal 3,220
same,Defecation [the number of fecal boli deposited in the open-field],[5]; animal 3,4
same,Grooming [the number of grooming bouts exhibited by the rat],[5]; animal 3,3
same,Rearing Responses [the number of times the animal raised both forefeet off the floor and extended its body],[5]; animal 3,5
same,Ambulation Score [the number of open-field sections entered by the rat],[5]; animal 4,220
same,Defecation [the number of fecal boli deposited in the open-field],[5]; animal 4,2
same,Grooming [the number of grooming bouts exhibited by the rat],[5]; animal 4,3
same,Rearing Responses [the number of times the animal raised both forefeet off the floor and extended its body],[5]; animal 4,4
same,Ambulation Score [the number of open-field sections entered by the rat],[5]; animal 5,210
same,Defecation [the number of fecal boli deposited in the open-field],[5]; animal 5,3
same,Grooming [the number of grooming bouts exhibited by the rat],[5]; animal 5,4
same,Rearing Responses [the number of times the animal raised both forefeet off the floor and extended its body],[5]; animal 5,6
same,Ambulation Score [the number of open-field sections entered by the rat],[5]; animal 6,220
same,Defecation [the number of fecal boli deposited in the open-field],[5]; animal 6,4
same,Grooming [the number of grooming bouts exhibited by the rat],[5]; animal 6,2
same,Rearing Responses [the number of times the animal raised both forefeet off the floor and extended its body],[5]; animal 6,4
same,"Ambulation Score [the number of open-field sections entered by the rat], Average",[5],213.33
same,"Defecation [the number of fecal boli deposited in the open-field], Average",[5],3.00
same,"Grooming [the number of grooming bouts exhibited by the rat], Average",[5],3.17
same,"Rearing Responses [the number of times the animal raised both forefeet off the floor and extended its body], Average",[5],4.33
same,% Improvement in Ambulation score wrt. G2,[5],15.23%
same,% Improvement in Defecation wrt. G2,[5],30.77%
same,% Improvement in Grooming wrt. G2,[5],59.57%
same,% Improvement in Rearing Responses wrt. G2,[5],40.62%
"CNCCc1ccccn1 [Group 3, reference compound]",Contact righting reflex (time),[1]; [6],21 s
same,Contact righting reflex (time),[1]; [7],26 s
same,Contact righting reflex (time),[1]; [8],28 s
same,Contact righting reflex (time),[1]; [9],23 s
same,Contact righting reflex (time),[1]; [10],27 s
same,Contact righting reflex (time),[1]; [11],26 s
same,"Contact righting reflex (time), Average",[1],25.17 s
same,"contact righting reflex, improvement (wrt. the Disease Control)",[1],around 38%
same,"Feed Consumption, 0 day",[2],15.33 gm
same,"Feed Consumption, 7th day",[2],16.00 gm
same,"Body Weight, End of the treatment",[3],188.10 gm
same,"Body Weight, Initial",[3],186.83 gm
same,Air Righting Reflex (% successfully righted within 5 s),[4]; animal 1,40%
same,"Air Righting Reflex, Successful out of 5",[4]; [12],2
same,Air Righting Reflex (% successfully righted within 5 s),[4]; animal 2,60%
same,"Air Righting Reflex, Successful out of 5",[4]; [13],3
same,Air Righting Reflex (% successfully righted within 5 s),[4]; animal 3,40%
same,"Air Righting Reflex, Successful out of 5",[4]; [14],2
same,Air Righting Reflex (% successfully righted within 5 s),[4]; animal 4,60%
same,"Air Righting Reflex, Successful out of 5",[4]; [15],3
same,Air Righting Reflex (% successfully righted within 5 s),[4]; animal 5,40%
same,"Air Righting Reflex, Successful out of 5",[4]; [16],2
same,Air Righting Reflex (% successfully righted within 5 s),[4]; animal 6,60%
same,"Air Righting Reflex, Successful out of 5",[4]; [17],3
same,"Air Righting Reflex (% of Rats that successfully righted themselves within 5 s), Average",[4],50.00%
same,Ambulation Score [the number of open-field sections entered by the rat],[5]; animal 1,200
same,Defecation [the number of fecal boli deposited in the open-field],[5]; animal 1,3
same,Grooming [the number of grooming bouts exhibited by the rat],[5]; animal 1,4
same,Rearing Responses [the number of times the animal raised both forefeet off the floor and extended its body],[5]; animal 1,5
same,Ambulation Score [the number of open-field sections entered by the rat],[5]; animal 2,210
same,Defecation [the number of fecal boli deposited in the open-field],[5]; animal 2,4
same,Grooming [the number of grooming bouts exhibited by the rat],[5]; animal 2,3
same,Rearing Responses [the number of times the animal raised both forefeet off the floor and extended its body],[5]; animal 2,4
same,Ambulation Score [the number of open-field sections entered by the rat],[5]; animal 3,215
same,Defecation [the number of fecal boli deposited in the open-field],[5]; animal 3,2
same,Grooming [the number of grooming bouts exhibited by the rat],[5]; animal 3,3
same,Rearing Responses [the number of times the animal raised both forefeet off the floor and extended its body],[5]; animal 3,6
same,Ambulation Score [the number of open-field sections entered by the rat],[5]; animal 4,230
same,Defecation [the number of fecal boli deposited in the open-field],[5]; animal 4,3
same,Grooming [the number of grooming bouts exhibited by the rat],[5]; animal 4,5
same,Rearing Responses [the number of times the animal raised both forefeet off the floor and extended its body],[5]; animal 4,4
same,Ambulation Score [the number of open-field sections entered by the rat],[5]; animal 5,220
same,Defecation [the number of fecal boli deposited in the open-field],[5]; animal 5,4
same,Grooming [the number of grooming bouts exhibited by the rat],[5]; animal 5,6
same,Rearing Responses [the number of times the animal raised both forefeet off the floor and extended its body],[5]; animal 5,5
same,Ambulation Score [the number of open-field sections entered by the rat],[5]; animal 6,225
same,Defecation [the number of fecal boli deposited in the open-field],[5]; animal 6,3
same,Grooming [the number of grooming bouts exhibited by the rat],[5]; animal 6,5
same,Rearing Responses [the number of times the animal raised both forefeet off the floor and extended its body],[5]; animal 6,4
same,"Ambulation Score [the number of open-field sections entered by the rat], Average",[5],216.67
same,"Defecation [the number of fecal boli deposited in the open-field], Average",[5],3.17
same,"Grooming [the number of grooming bouts exhibited by the rat], Average",[5],4.33
same,"Rearing Responses [the number of times the animal raised both forefeet off the floor and extended its body], Average",[5],4.67
same,% Improvement in Ambulation score wrt. G2,[5],13.91%
same,% Improvement in Defecation wrt. G2,[5],26.92%
same,% Improvement in Grooming wrt. G2,[5],44.68%
same,% Improvement in Rearing Responses wrt. G2,[5],43.75%
